Consider nine compounds from ChEMBL document CHEMBL5465560, “Selectivity Literature for EUbOPEN Chemogenomic Library” (2024).

Some results are limits rather than exact numbers.

For assay [1], the target named is T1, Cyclin-G-associated kinase (Homo sapiens) (UniProt O14976).
T1 sequence (whole entry): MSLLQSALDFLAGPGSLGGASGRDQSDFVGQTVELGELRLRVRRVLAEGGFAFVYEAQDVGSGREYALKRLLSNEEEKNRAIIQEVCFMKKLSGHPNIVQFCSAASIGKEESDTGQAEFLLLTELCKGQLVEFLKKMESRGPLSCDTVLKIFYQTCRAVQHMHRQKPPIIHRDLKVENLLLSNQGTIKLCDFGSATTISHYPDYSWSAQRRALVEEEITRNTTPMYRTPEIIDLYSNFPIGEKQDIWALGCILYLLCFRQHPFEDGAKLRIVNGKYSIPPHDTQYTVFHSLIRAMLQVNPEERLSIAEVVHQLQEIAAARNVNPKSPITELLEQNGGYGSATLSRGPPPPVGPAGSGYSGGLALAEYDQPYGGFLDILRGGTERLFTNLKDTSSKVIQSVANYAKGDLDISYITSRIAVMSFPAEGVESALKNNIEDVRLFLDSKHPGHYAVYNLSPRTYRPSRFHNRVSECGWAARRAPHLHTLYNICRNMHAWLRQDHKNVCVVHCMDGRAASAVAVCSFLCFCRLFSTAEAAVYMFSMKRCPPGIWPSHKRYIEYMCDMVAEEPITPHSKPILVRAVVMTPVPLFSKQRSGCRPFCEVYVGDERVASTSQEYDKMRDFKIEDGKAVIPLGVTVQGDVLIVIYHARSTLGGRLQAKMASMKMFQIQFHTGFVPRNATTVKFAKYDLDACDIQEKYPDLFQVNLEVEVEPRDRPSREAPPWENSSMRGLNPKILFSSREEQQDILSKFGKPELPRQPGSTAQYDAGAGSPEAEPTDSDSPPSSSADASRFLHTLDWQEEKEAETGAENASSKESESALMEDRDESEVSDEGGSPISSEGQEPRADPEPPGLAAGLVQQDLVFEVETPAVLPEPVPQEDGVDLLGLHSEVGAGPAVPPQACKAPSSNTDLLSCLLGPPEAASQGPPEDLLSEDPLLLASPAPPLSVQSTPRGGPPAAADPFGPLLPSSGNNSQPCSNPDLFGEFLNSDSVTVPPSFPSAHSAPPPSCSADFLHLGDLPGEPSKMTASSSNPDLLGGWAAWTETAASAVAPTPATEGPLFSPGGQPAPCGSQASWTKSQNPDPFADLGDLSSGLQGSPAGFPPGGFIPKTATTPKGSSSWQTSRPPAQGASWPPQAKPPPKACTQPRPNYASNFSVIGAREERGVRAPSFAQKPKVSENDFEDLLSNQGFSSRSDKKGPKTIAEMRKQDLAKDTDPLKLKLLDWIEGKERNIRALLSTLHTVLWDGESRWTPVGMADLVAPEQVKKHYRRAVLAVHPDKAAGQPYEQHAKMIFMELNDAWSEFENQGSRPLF
The conditions noted are these: at 10 µM.

For assay [2], the target named is Cyclin-dependent kinase 9 (Homo sapiens, UniProt P50750). Briefly: Selectivity interaction (Z-Lyte kinase biochemical assay, conc. ATP = Km(app), Thermo Fisher Scientific) EUB0001558a CDK9.
Sequence of Cyclin-dependent kinase 9 (P50750 whole entry): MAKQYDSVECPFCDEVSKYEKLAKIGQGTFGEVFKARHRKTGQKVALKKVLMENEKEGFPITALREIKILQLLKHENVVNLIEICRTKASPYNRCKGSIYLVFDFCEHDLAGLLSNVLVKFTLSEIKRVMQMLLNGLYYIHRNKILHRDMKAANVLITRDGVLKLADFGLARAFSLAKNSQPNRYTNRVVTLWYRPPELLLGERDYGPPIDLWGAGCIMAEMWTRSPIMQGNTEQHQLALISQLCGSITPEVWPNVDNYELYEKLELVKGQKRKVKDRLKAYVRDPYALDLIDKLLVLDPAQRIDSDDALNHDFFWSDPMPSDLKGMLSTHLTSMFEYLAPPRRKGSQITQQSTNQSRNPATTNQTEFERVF
The target in assay [3] is T2, Cyclin-dependent kinase 11A (Homo sapiens) (UniProt Q9UQ88).
T2 sequence (whole entry): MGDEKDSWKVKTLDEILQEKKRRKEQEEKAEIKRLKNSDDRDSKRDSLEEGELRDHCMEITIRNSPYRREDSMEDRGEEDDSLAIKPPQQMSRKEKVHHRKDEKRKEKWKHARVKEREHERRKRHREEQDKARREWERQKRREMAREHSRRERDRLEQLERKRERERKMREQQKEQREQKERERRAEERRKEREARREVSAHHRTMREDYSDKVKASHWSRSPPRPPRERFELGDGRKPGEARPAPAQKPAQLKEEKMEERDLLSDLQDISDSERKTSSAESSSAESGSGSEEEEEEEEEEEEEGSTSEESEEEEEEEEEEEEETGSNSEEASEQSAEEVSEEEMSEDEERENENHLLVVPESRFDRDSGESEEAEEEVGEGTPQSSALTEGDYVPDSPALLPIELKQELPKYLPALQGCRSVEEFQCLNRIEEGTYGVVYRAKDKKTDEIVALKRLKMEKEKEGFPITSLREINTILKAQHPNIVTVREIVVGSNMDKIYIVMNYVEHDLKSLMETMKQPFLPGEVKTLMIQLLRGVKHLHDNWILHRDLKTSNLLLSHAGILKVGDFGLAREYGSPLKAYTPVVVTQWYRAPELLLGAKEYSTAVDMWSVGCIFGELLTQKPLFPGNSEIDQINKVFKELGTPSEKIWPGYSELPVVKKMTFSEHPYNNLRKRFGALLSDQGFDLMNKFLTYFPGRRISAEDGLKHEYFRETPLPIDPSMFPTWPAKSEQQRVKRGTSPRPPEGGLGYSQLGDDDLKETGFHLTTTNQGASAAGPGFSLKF
Briefly: Selectivity interaction (Ambit KINOMEscan and KiNATiv profiling in Jurkat cells) EUB0000090b CDK11A. It counts as cell-based. The conditions noted are these: at 1 µM.

In assay [4] the test system is Phosphatidylinositol 4,5-bisphosphate 3-kinase catalytic subunit alpha isoform (Homo sapiens), P42336 [C420R]. Briefly: (§1) Selectivity interaction (Ambit KINOMEscan) EUB0000092b PIK3CA. The conditions noted are these: at 10 µM.
Sequence of Phosphatidylinositol 4,5-bisphosphate 3-kinase catalytic subunit alpha isoform (Homo sapiens), P42336 [C420R] (P42336 whole entry C420R, canonical isoform): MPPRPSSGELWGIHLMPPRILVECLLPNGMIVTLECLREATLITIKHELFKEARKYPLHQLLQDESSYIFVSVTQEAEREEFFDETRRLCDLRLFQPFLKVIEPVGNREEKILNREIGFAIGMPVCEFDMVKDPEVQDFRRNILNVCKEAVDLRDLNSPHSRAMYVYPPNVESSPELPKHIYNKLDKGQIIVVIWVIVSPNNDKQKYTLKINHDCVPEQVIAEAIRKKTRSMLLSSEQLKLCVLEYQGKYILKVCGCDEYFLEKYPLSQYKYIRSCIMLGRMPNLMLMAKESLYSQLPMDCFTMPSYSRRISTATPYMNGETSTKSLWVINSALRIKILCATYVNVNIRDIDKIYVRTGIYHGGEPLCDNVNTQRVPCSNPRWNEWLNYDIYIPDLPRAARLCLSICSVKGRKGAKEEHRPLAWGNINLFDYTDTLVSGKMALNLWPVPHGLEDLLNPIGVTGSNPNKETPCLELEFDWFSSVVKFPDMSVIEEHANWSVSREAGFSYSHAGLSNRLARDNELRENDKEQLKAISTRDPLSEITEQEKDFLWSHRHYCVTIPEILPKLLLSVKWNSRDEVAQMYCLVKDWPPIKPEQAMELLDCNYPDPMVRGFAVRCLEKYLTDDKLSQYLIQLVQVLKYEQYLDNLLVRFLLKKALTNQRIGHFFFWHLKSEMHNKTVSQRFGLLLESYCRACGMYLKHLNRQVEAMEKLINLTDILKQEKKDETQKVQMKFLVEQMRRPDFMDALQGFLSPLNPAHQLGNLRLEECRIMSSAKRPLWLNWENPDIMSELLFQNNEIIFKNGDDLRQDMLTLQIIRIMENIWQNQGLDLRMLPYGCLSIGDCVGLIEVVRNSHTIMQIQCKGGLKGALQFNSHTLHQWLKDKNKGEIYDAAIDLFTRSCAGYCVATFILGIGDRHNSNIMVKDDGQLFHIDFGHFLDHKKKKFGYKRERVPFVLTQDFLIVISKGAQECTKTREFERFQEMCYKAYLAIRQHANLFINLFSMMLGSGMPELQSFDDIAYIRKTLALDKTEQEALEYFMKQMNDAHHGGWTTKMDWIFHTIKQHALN
Assay [5] concerns Phosphatidylinositol 4,5-bisphosphate 3-kinase catalytic subunit alpha isoform (Homo sapiens), P42336 [E545K]. The description is as §1. The conditions noted are these: at 10 µM.
Sequence of Phosphatidylinositol 4,5-bisphosphate 3-kinase catalytic subunit alpha isoform (Homo sapiens), P42336 [E545K] (P42336 whole entry E545K, canonical isoform): as the sequence (P42336 whole entry C420R, canonical isoform) above, with R420C, E545K counted along it
The target of assay [6] is Histone-lysine N-methyltransferase PRDM9 (Homo sapiens) (UniProt Q9NQV7). As to the kind of experiment: Selectivity interaction (Methyltransferase screen (Scintillation proximity assays)) EUB0000255b PRDM9. Background: In a scintillation proximity assay essentially only radioactivity close to the scintillant gives light.
Sequence of Histone-lysine N-methyltransferase PRDM9 (Homo sapiens) (Q9NQV7 whole entry): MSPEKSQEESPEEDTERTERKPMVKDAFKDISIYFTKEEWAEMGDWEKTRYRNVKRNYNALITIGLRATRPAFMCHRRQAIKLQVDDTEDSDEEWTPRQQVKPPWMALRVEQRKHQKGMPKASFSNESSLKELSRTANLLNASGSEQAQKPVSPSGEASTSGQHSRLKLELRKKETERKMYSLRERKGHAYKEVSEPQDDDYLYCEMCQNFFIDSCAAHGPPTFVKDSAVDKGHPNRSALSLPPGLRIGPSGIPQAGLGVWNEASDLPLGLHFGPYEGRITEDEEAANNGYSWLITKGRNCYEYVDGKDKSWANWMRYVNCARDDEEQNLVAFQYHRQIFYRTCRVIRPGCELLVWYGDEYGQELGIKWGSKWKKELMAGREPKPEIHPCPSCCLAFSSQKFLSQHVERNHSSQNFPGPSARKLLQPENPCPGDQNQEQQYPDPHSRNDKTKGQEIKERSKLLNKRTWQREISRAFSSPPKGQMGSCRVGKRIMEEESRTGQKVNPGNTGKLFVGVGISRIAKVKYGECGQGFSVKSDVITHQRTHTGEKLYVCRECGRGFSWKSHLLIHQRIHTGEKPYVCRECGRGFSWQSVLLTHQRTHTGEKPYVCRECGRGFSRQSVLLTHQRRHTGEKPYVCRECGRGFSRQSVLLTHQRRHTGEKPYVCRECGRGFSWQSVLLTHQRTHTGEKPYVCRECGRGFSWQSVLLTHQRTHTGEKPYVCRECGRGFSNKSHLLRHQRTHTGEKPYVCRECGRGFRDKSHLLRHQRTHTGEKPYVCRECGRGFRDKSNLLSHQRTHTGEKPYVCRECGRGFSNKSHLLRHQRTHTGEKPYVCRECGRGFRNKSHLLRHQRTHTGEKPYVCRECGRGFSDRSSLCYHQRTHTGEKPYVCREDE
The target in assay [7] is Dual specificity testis-specific protein kinase 1 (Homo sapiens) (UniProt Q15569). As to the kind of experiment: Selectivity interaction (KinomeScan (DiscoverX)) EUB0001049a TESK1. The conditions noted are these: at 1 µM.
Sequence of Dual specificity testis-specific protein kinase 1 (Homo sapiens) (Q15569 whole entry, looked up): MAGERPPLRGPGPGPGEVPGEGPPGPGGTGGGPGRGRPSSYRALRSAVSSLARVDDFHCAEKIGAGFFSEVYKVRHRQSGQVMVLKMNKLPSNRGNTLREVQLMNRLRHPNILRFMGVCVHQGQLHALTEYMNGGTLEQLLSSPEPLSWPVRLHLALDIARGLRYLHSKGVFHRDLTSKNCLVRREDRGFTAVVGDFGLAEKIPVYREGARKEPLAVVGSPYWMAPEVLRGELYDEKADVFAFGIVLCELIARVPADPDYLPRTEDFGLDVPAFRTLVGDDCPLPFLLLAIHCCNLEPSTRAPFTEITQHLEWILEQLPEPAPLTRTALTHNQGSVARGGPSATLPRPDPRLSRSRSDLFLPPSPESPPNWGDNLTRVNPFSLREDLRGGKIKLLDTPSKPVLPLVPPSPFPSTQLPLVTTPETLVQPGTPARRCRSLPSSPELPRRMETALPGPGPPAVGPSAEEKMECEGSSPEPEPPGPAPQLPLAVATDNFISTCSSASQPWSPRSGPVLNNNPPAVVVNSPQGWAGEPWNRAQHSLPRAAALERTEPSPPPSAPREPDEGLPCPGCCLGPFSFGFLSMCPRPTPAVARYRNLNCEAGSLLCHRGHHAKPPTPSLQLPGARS
Assay [8] concerns the target Activin receptor type-2B (Homo sapiens) (UniProt Q13705). Briefly: Selectivity interaction (LanthaScreen Eu Kinase Binding Assay) EUB0001632a ACVR2B. Particulars: at 10 µM.
Assay [9] concerns the target Protein-tyrosine kinase 6 (Homo sapiens, UniProt Q13882). Briefly: Selectivity interaction (SelectScreen profiling (Invitrogen)) EUB0000607a PTK6. The conditions noted are these: at 2 µM.
Assay [10] deals with Cyclin-dependent kinase 17 (Homo sapiens) (UniProt Q00537). As to the kind of experiment: Selectivity interaction (ActivX KiNativ screen (kinase selectivity in THP-1 cell lysates)) EUB0000639a CDK17. It counts as subcellular. The conditions noted are these: lysate, at 0.2 µM.
Sequence of Cyclin-dependent kinase 17 (Homo sapiens) (Q00537 whole entry, looked up): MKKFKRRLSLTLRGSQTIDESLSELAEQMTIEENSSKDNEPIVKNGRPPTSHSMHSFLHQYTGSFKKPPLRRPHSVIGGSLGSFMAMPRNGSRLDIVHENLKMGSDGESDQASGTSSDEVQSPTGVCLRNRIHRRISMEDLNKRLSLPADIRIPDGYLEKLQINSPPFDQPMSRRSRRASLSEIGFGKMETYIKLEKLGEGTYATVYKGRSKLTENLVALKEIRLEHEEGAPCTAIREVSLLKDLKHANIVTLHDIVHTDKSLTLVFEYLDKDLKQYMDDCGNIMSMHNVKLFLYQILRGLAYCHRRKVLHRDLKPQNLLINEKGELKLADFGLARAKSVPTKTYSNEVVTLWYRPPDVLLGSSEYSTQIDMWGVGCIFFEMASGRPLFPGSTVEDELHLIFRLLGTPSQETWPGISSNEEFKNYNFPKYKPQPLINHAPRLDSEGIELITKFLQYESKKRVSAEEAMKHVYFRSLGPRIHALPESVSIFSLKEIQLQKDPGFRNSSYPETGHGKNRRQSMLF

Sequence of Protein-tyrosine kinase 6 (Q13882 whole entry, looked up): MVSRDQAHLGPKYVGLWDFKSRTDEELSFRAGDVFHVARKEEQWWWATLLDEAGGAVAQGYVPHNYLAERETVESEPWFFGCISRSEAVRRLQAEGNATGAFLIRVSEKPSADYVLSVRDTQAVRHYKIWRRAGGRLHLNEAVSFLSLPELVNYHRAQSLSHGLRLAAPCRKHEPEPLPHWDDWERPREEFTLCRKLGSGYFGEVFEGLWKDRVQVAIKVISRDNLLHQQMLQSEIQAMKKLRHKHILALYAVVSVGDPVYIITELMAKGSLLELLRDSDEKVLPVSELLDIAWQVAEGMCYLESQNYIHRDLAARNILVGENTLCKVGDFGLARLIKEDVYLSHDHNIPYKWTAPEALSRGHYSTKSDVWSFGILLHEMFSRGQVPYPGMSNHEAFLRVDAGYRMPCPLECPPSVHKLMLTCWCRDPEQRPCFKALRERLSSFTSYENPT
Sequence of Activin receptor type-2B (Homo sapiens) (Q13705 whole entry): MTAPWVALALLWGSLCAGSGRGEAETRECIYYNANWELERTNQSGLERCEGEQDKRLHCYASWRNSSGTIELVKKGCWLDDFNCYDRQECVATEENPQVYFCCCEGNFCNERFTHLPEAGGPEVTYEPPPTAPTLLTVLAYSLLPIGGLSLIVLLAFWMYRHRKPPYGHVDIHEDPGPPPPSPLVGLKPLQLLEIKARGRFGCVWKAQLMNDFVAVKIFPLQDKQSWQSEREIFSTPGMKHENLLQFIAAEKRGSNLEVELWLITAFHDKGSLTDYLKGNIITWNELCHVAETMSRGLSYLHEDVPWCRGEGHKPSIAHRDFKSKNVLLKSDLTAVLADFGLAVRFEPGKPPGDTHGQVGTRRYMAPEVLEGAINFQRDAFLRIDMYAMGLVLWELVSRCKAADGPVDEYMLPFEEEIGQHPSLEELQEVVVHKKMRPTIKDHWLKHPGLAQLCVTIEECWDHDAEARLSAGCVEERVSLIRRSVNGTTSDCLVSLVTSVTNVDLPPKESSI

With `Cc1cc([C@@H](C)Nc2ccccc2C(=O)O)c2nc(N3CCOCC3)cc(=O)n2c1` [AZD-6482], the % of control in [1] worked out at 75%.

The term IC50 denotes the concentration needed to halve the response being measured. As for `CC(C)(O)[C@H](F)CN1Cc2cc(NC(=O)c3cnn4cccnc34)c(N3CCOCC3)cc2C1=O`, the 50% inhibitory concentration (IC50) in assay [2] was found to be 966 nM.

The compound `CN(C)C/C=C/C(=O)Nc1ccc(C(=O)N2CCCC(Nc3ncc(Cl)c(-c4c[nH]c5ccccc45)n3)C2)cc1` (stereo unspecified) displayed a % of control in assay [3] of 100%. For the compound `CCC(=O)N1CCN(c2ccc(-n3c(=O)ccc4cnc5ccc(-c6cnc7ccccc7c6)cc5c43)cc2C(F)(F)F)CC1`, the % of control in [4] was 0.7%; in assay [5] it was 0.6%. Regarding `COCCN1CCC(c2cc(CN(C)C(=O)c3cccc(Oc4ccccc4)c3)ccn2)CC1`, the results for the % activity in [6] (at 1 µM) and in [6] (at 10 µM) were above 95% and above 90%, respectively. In assay [7], `COc1cc(Nc2nc(C)cc(-c3cnn4nc(OC)ccc34)n2)cc(C(F)(F)F)c1` gave a % of control of 73%.

For the compound `Cn1cc(-n2cnc3c(NCc4nc5cc(Cl)c(Cl)cc5[nH]4)nc(N4CCOCC4)nc32)cn1`, the % of inhibition in assay [8] is -21.2%. Take `CNC(=O)Nc1ccc(-c2nc(N3CC4CCC(C3)O4)c3cnn(C4CCC5(CC4)OCCO5)c3n2)cc1`: in assay [9], the % of inhibition was determined as 8%. As for `CC[C@@H]1[C@H](F)C(=O)N[C@@H]1COc1nccc2cc(C(N)=O)c(OC)cc12` [ZIMLOVISERTIB], the % of inhibition in assay [10] turned out to be 0.4%.
